Measured values reported in US20210293825A1, “METHODS FOR PRECISION THERAPEUTIC TARGETING OF HUMAN CANCER CELL MOTILITY AND KITS THEREOF” (UNITED STATES GOVERNMENT AS REPRESENTED BY THE DEPARTMENT …, priority 2018, published 2021).

Key:
PC3-luc cells = assay: Prostate cancer intracardiac injection bone metastasis model; type: in vivo, athymic mice
Procedure: Athymic mice were given intracardiac (IC) injections of PC3-luc cells on day 0 under ultrasound guidance, and underwent weekly IVIS imaging starting seven days post injection. Cohorts of N=20 control, N=20 Pre (treatment from 3 days prior to IC injection through end of experiment), N=10 Pre7Stop (treatment from 3 days prior to IC injection through 7 days post IC injection) and N=10 Post treatment (treatment from 3 days post-IC injection through end of experiment) mice were dosed with 80 mg/kg KBU2046 daily by oral gavage and mock treated with vehicle all other times. FIG. 3c depicts whole body and FIG. 3b depicts mandible flux as determined from weekly IVIS imaging. […] Arrows denote areas of bone destruction in controls, and corresponding areas in the Pre mouse. Student's t test (b-c) and Fisher's exact test (d) P values between the denoted cohorts are shown.
Prostate cancer: intracardiac (IC) injection. IC injection of 4.0×10^5 PC3-Luc cells into male 6-8 week old athymic mice with IVIS imaging was performed as described (Chu, K. et al., Mol Cancer Res 6, 1259-67 (2008)), and was done so under ultrasound guidance (FIG. 15). Mice were treated pre- and/or post-IC injection, as indicated. The pretreatment cohort emulates a metastasis naïve model wherein cell motility is required in order for cells to invade into a distant organ, in this case the jaw bone, for which this model is widely used. If KBU2046 were inhibiting cell motility, then in this model it would act to inhibit metastasis formation. In contrast, with the post implantation cohort, cells have already completed invasion into the jaw bone, and distant metastasis have been established. […] IVIS imaging was performed 30 minutes after IC injection to confirm systemic distribution of cells, and thereafter weekly for 4 weeks starting seven days post injection, allowing real time tracking of metastasis development and growth. Computed Tomograpgy (CT) (Inveon, Seimens) radiographic imaging was performed on some mice, as indicated, and resultant images analyzed in a blinded fashion using Inveon Research Workplace 4.2 visualization/analysis software and ImageJ. […] Experimental groups were randomly assigned to cages prior to the initiation of the study. CT images were analyzed in a blinded fashion to determine total bone loss using both the Invenon Research Workplace 4.2 visualization/analysis software and ImageJ. Specifically, to assess bone loss in an unbiased manor, an operator randomly loaded images into the system and blocked out identifying information prior to analysis by two separate blinded individuals.

HSP90β = target: T1, HSP90β (Homo sapiens, UniProt P08238); assay: Biophysical binding assays and DARTS, isolated HSP90β; details: ITC, thermal shift, biolayer interferometry, dynamic light scattering, DARTS
T1 construct: made in house; host or cells: Rosetta BL-21 E. coli
Procedure: Studies used purified recombinant HSP90β or CDC37. […] For DARTS assay, HSP90β or CDC37 were individually pre-incubated with KBU2046, thermolysin added, and reaction products were separated by SDS PAGE and visualized by silver stain (depicted above). NTco—no thermolysin control. However, when the DARTS assay was conducted with both HSP90β and CDC37 present, KBU2046 protected both proteins from degradation in a concentration-dependent manner (see, FIG. 5a).
DARTS provides a sensitive measure of ligand-induced changes in protein structure and dynamics by measuring the ability of a ligand to protect its target from protease digestion (Lomenick, B. et al., Proc Natl Acad Sci USA 106, 21984-9 (2009)). […] The intensity of the CDC37 band increased, that of the HSP90β degradation product decreased, and both effects were statistically significant, concentration-dependent and were evident at 10 nM. […] Further, these findings also indicate that KBU2046 is not acting as a classical HSP90 inhibitor.
Biophysical and Biochemical Binding Assays. […]

[1] = test system: phosphorylation of p38 MAPK or of HSP27; assay: Downstream phosphorylation of p38 MAPK and HSP27 in cells (Western blot); type: cell-based, human; details: PC3-M cells, 50 μM, 24 hours, then TGFβ
Procedure: FIG. 16a is a depiction of established MKK4 pathway regulating human PCa cell metastasis. […] Values are the mean±SD (of N=2 replicates) increase in melting temperature (ΔTm) of purified recombinant MKK4 induced by the indicated concentrations of KBU2046 or genistein. […] The indicated concentrations of KBU2046 were added to recombinant activated MKK4, and its ability to phosphorylate kinase dead p38a MAPK (K53A) was measured by Western blot for total (p38 MAPK) and phosphorylated (pp38 MAPK) forms of p38 MAPK. […] PC3-M cells were pre-treated for 24 hours with 50 μM KBU2046 or genistein, as indicated, then with TGFβ, and Western blot performed. These findings are from a single experiment, with similar findings in identical separate experiments, repeated at least once.

[2] = Pre cohort, 80 mg/kg daily oral gavage

T1 sequence (P08238 whole entry): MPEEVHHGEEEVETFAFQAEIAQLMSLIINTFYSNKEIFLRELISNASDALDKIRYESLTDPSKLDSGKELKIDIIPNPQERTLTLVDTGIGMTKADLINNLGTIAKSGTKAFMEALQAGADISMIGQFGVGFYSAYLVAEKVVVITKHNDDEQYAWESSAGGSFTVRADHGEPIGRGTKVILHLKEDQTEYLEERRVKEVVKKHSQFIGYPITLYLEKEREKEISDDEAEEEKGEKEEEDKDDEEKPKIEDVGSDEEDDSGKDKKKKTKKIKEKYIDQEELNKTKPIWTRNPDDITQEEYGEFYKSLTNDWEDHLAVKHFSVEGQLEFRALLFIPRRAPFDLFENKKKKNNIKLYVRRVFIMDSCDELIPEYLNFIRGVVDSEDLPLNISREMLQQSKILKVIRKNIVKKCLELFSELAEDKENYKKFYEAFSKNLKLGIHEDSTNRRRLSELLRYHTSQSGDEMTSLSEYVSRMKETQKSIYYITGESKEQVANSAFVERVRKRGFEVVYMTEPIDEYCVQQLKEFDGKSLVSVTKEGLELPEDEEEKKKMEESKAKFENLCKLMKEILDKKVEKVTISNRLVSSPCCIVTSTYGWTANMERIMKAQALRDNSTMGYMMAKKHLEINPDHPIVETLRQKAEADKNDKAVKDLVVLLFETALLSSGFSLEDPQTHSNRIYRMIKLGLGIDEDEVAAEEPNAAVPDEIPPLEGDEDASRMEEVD

O=C1c2ccccc2OCC1c1ccc(F)cc1 (racemic) [KBU2046, (±)-3(4-fluorophenyl)chroman-4-one]
metastasis to the total body and to the jaw (PC3-luc cells; Post cohort, treatment from 3 days post-IC injection): do not differ from control mice | jaw metastasis (PC3-luc cells; Pre7Stop cohort): jaw metastasis is significantly decreased compared to control | total body metastasis (PC3-luc cells; Pre7Stop cohort, compared to control and Post cohorts): total body metastasis is significantly decreased | metastasis to the mandible (PC3-luc cells; [2]): decreased metastasis to the mandible | total metastatic burden (whole body flux) (PC3-luc cells; [2]): significant decrease in total metastatic burden | destruction of bone (mandible, Computed Tomography) (PC3-luc cells; Pre cohort, week 4): decreased destruction of bone | binding to HSP90β (HSP90β): no evidence of KBU2046 binding | inhibition of downstream phosphorylation of p38 MAPK or HSP27 [1]: did not inhibit downstream phosphorylation of p38 MAPK or of HSP27
